Measurements published in patent US8344002B2, “Compound having β-secretase inhibitory activity” (priority 2007, dated 2013).

molecular target: T1, recombinant human BACE-1 (rhBACE-1) (Homo sapiens, UniProt P56817); assay: BACE1 inhibitory activity, rhBACE-1 with fluorogenic peptide substrate, reverse phase HPLC; assay type: biochemical; conditions: inhibitor 2 μM; MES buffer pH 5.0, 37° C., 60 minutes; read-out: Inhibitory rate (%) (2 μM)
T1 construct: expressed as only an extracellular region (amino acid 1-460 residues) of recombinant human β-secretase; His tag (C); purchased R&D systems (Minneapolis, Minn.); host or cells: murine myeloma cell line NS0
T1 sequence (P56817 46-460 limits assumed): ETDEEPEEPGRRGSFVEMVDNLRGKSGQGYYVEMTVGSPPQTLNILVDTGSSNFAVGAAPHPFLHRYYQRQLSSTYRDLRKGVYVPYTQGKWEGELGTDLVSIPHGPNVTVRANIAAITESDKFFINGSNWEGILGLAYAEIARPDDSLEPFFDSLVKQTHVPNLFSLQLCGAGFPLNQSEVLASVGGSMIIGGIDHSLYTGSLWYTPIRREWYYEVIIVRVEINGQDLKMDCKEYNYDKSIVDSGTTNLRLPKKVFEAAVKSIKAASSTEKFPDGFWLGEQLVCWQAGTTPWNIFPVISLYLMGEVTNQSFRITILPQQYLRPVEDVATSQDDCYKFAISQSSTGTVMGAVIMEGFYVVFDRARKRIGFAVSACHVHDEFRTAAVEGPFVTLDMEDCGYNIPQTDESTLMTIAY
Description: Experiment Regarding Measurement of BACE1 Inhibitory Activity Enzyme Used in Measurement As an enzyme having β-secretase activity, recombinant human BACE-1 (rhBACE-1) purchased from R&D systems (Minneapolis, Minn.) was used. rhBACE-1 is expressed as only an extracellular region ([…] residues) of recombinant human β-secretase, with a His tag at its carboxyl terminus in murine myeloma cell line, NS0. Purified secreted rhBACE1 is a mixture of a pro entity (about 75 kDa) and a mature entity (about 72 kDa). […] Assessment of Enzyme Inhibitory Activity […] After incubation at 37° C. for 60 minutes, 20 μL of 20% trichloroacetic acid was added to stop the reaction. And, inhibition % was calculated by measuring a fluorescent intensity of the N-terminal fragment (Ex, 328 nm; […]

Compared with `C[C@@H](NC(=O)c1cc(=O)cc(C(=O)N[C@@H](Cc2ccccc2)[C@H](O)C(=O)Nc2cccc(-c3nn[nH]n3)c2)o1)c1ccccc1` [Example 1], `C[C@@H](NC(=O)c1cc(=O)cc(C(=O)N[C@@H](Cc2ccccc2)[C@H](O)C(=O)Nc2cccc(-c3nn[nH]n3)c2)o1)c1ccc(F)cc1` [Example 22] is higher in inhibition at 2 µM: 70.1% for the first, 75.8% for the second.

Going from `O=C(N[C@@H](Cc1ccccc1)[C@H](O)C(=O)Nc1cccc(-c2nn[nH]n2)c1)c1cc(=O)cc(C(=O)N(Cc2ccccc2)Cc2ccccc2)o1` [Example 2] to `CN(Cc1ccccc1)C(=O)c1cc(=O)cc(C(=O)N[C@@H](Cc2ccccc2)[C@H](O)C(=O)Nc2cccc(-c3nn[nH]n3)c2)o1` [Example 6], the inhibition at 2 µM rises from 28.8% to 66.9%.

Compared with `C[C@@H](NC(=O)c1cc(=O)cc(C(=O)N[C@@H](Cc2ccccc2)[C@H](O)C(=O)Nc2cccc(-c3nn[nH]n3)c2)o1)c1ccc([N+](=O)[O-])cc1` [Example 3], `COc1ccc([C@@H](C)NC(=O)c2cc(=O)cc(C(=O)N[C@@H](Cc3ccccc3)[C@H](O)C(=O)Nc3cccc(-c4nn[nH]n4)c3)o2)cc1` [Example 5] is higher in inhibition at 2 µM: 26.8% for the first, 70.4% for the second.

Compared with `C[C@@H](NC(=O)c1cc(=O)cc(C(=O)NC(Cc2ccccc2)[C@H](O)C(=O)Nc2cccc(-c3nn[nH]n3)c2)[nH]1)c1ccccc1` (stereo partly shown) [Example 7], `CC(C)(NC(=O)c1cc(=O)cc(C(=O)NC(Cc2ccccc2)[C@H](O)C(=O)Nc2cccc(-c3nn[nH]n3)c2)[nH]1)c1ccccc1` (stereo partly shown) [Example 8] is higher in inhibition at 2 µM: 50.8% for the first, 65.1% for the second.

First: C[C@@H](NC(=O)c1cccc(C(=O)NC(Cc2ccccc2)[C@H](O)C(=O)Nc2cccc(-c3nn[nH]n3)c2)n1)c1ccccc1 (stereo partly shown) [Example 9]
Second: CC(C)(NC(=O)c1cccc(C(=O)NC(Cc2ccccc2)[C@H](O)C(=O)Nc2cccc(-c3nn[nH]n3)c2)n1)c1ccccc1 (stereo partly shown) [Example 10]
The inhibition at 2 µM of the first is lower: 65.6% for the first, 69.1% for the second.

First: O=C(NC(Cc1ccccc1)[C@H](O)C(=O)Nc1cccc(-c2nn[nH]n2)c1)c1cc(=O)cc(C(=O)N2COCC2c2ccccc2)o1 (stereo partly shown) [Example 13]
Second: O=C(NC(Cc1ccccc1)[C@H](O)C(=O)Nc1cccc(-c2nn[nH]n2)c1)c1cc(=O)cc(C(=O)N2COCC2c2ccccc2)[nH]1 (stereo partly shown) [Example 14]
The inhibition at 2 µM of the first is higher: 95.6% for the first, 82.7% for the second.

First: O=C(NC(Cc1ccccc1)[C@H](O)C(=O)Nc1cccc(-c2nn[nH]n2)c1)c1cccc(C(=O)N2COCC2c2ccccc2)n1 (stereo partly shown) [Example 15]
Second: CS(=O)(=O)Oc1cc(C(=O)NC(Cc2ccccc2)[C@H](O)C(=O)Nc2cccc(-c3nn[nH]n3)c2)nc(C(=O)N2COCC2c2ccccc2)c1 (stereo partly shown) [Example 16]
The inhibition at 2 µM of the first is lower: 92.6% for the first, 95.6% for the second.

Going from `CC(C)(NC(=O)c1cccc(C(=O)NC(Cc2ccccc2)[C@H](O)C(=O)NS(=O)(=O)C(F)(F)F)n1)c1ccccc1` (stereo partly shown) [Example 17] to `CC(C)(NC(=O)c1cc(=O)cc(C(=O)N[C@@H](Cc2ccccc2)[C@H](O)C(=O)Nc2cccc(-c3nn[nH]n3)c2)o1)c1ccccc1` [Example 21], the inhibition at 2 µM rises from 37.4% to 80.8%.
